{
  "source": "patent US11166931B2",
  "about": "“Induction of arteriogenesis with an NO (nitric oxide) donor” (G. Pohl-Boskamp GmbH & Co. KG, priority 2012, dated 2021)",
  "key": {"Sprague-Dawley rats [1]": {"system": "Sprague-Dawley rats", "assay": "Ventricular arrhythmias during FPO, Lown classification and VPB score", "settings": "rat, in vivo"}, "Sprague-Dawley rats [2]": {"system": "Sprague-Dawley rats", "assay": "Infarct size by TTC staining after final permanent occlusion", "assay_type": "in vivo, rat"}, "Sprague-Dawley rats [3]": {"system": "Sprague-Dawley rats", "assay": "ST segment elevation (ECG) during final permanent LAD occlusion (FPO), rat repetitive ischemia protocol (RIP) arteriogenesis model", "assay_type": "in vivo"}, "arteriogenesis": {"system": "arteriogenesis", "settings": "nitroglycerin: administered continuously; cited from earlier work"}},
  "note": "Entries after “also recorded” stand apart in the source; their conditions may differ.",
  "data": [
    {"compound": "CC(=O)Oc1ccccc1C(=O)O", "note": "[ASA+NTG-PLACEBO]", "values": [
      {"measurement": "VPB-Score", "setting": "Sprague-Dawley rats [1]", "result": 5.50},
      {"measurement": "rats with class IIIa arrhythmias (Lown) during FPO", "setting": "Sprague-Dawley rats [1]", "result": 16.7, "unit": "%"},
      {"measurement": "rats with class IVb arrhythmias (Lown) during FPO", "setting": "Sprague-Dawley rats [1]", "result": 83.3, "unit": "%"},
      {"measurement": "Infarct size (percentage of the area of the left ventricle)", "setting": "Sprague-Dawley rats [2]; rat, in vivo", "result": "13.92 ±1.71", "unit": "%"}
    ]},
    {"compound": "O=[N+]([O-])OCC(CO[N+](=O)[O-])O[N+](=O)[O-]", "note": "[NTG, nitroglycerin]", "values": [
      {"measurement": "ST elevation / ECG parameters during FPO compared to controls (in words)", "setting": "Sprague-Dawley rats [3]; rat, in vivo", "result": "significantly attenuated ST elevation"},
      {"measurement": "arrhythmias during FPO compared to controls (in words)", "setting": "Sprague-Dawley rats [1]", "result": "decreased serious arrhythmias"},
      {"measurement": "infarct volume decreased compared to the control group", "setting": "Sprague-Dawley rats [2]; rat, in vivo", "result": "more than 50%"},
      {"measurement": "effect on arteriogenesis described in the art (in words)", "setting": "arteriogenesis", "result": "not able to induce angiogenesis (neovascularisation) or arteriogenesis"}
    ]},
    {"compound": "O=[N+]([O-])O[C@H]1CO[C@H]2[C@@H]1OC[C@H]2O[N+](=O)[O-]", "note": "[ISDN, isosorbide dinitrate]", "values": [
      {"measurement": "ST elevation / ECG parameters during FPO compared to controls (in words)", "setting": "Sprague-Dawley rats [3]; rat, in vivo", "result": "non-significantly decreased; also recorded: decreases in ST elevation"},
      {"measurement": "arrhythmias during FPO compared to controls (in words)", "setting": "Sprague-Dawley rats [1]", "result": "less arrhythmias"},
      {"measurement": "infarct size / infarct volume compared to other groups (in words)", "setting": "Sprague-Dawley rats [2]; rat, in vivo", "result": "reduced infarct volumes"}
    ]},
    {"compound": "CC(=O)Oc1ccccc1C(=O)O", "note": "[ASA, acetyl salicylic acid]", "values": [
      {"measurement": "ST elevation / ECG parameters during FPO compared to controls (in words)", "setting": "Sprague-Dawley rats [3]; 5 DAYS RIP", "result": "impairment of ECG parameters"},
      {"measurement": "infarct size / infarct volume compared to other groups (in words)", "setting": "Sprague-Dawley rats [2]; 5 DAYS RIP", "result": "increase of infarct volumes"},
      {"measurement": "effect on arteriogenesis described in the art (in words)", "setting": "arteriogenesis", "result": "inhibitor of arteriogenesis"}
    ]}
  ]
}
